The source of these data is patent US12098129B2, “Pharmaceutical composition for treating fibrosis” (LTT BIO-PHARMA CO., LTD., priority 2018, dated 2024).

The subject of series [1] is LL29 cells (IPF patient-derived lung fibroblast cells). The series is described as follows: MTT cell viability of lung fibroblast cells compared with alveolar epithelial cells. The series is classed as cell-based, human. The conditions noted are these: for fibroblast cell-selective decrease in cell viability / cell death (LL29 versus A549): LL29 versus A549 cells, survived cell number; for difference in IC50 (concentration required to decrease the cell viability by 50%) between LL29 and A549 cells: screening of existing approved drugs, MTT, 24 hours, IC50 for LL29 lower than for A549. As to the method:
(§1) A549 cells (human alveolar epithelial cells) and LL29 cells (IPF patient-derived lung fibroblast cells) were cultured under conditions of 37° C. and 5% CO2 by using, respectively, Dulbecco's modified Eagle's medium containing 10% FBS and Ham's F-12K (Kaighn's) medium containing 15% FBS.
(§2) The number of living cells was measured by an MTT method or trypan blue staining using Countess (trademark) Automated Cell Counter (Invitrogen, Carlsbad, CA). For evaluation of cell death, LDH activity in the medium was measured in accordance with the protocol of the assay kit.
For a specific method, IPF patient-derived lung fibroblast cells (LL29 cells) and human alveolar epithelial cells (A549 cells) were treated with existing approved drugs, and the cell viability 24 hours later was evaluated by an MTT method.
As with (b-1) above, IPF patient-derived lung fibroblast cells (LL29 cells) and human alveolar epithelial cells (A549 cells) were treated with existing approved drugs, and the cell viability 24 hours later was evaluated by an MTT method.

In series [2] the test system is BLM pulmonary injury model mouse. The series is described as follows: BLM pulmonary injury model: H&E / Masson's trichrome staining, Ashcroft score, hydroxyproline. In kind it is in vivo.
The test system is the same in series [3]. Put plainly: BLM pulmonary injury model: lung function (elastance, FVC) with ventilator for mice. In kind it is in vivo. Here is the method: (§3) On day 1, BLM was administered via the airway to a normally reared male ICR mouse to prepare a BLM pulmonary injury model mouse.
The lung function was measured in accordance with previous literature by using a computer-controlled ventilator for small animals (FlexiVent; SCIREQ, Montreal, Canada). A metal tube (with an outer diameter of 1.27 mm and an inner diameter of 0.84 mm) was inserted by 8 mm into a mouse anesthetized with chloral hydrate (500 mg/kg), and the mouse was caused to breathe mechanically at a rate of 150 breaths/min with a tidal volume of 8.7 ml/kg and a positive end-expiratory pressure ventilation of 2-3 cm H2O.
The total respiratory elastance and the tissue elastance were measured by the snap shot and the forced oscillation technique, respectively. The forced vital capacity was measured in accordance with Chest 142, 1011-1019 (2012) by using the computer-controlled ventilator for small animals and a negative pressure reservoir (SCIREQ, Montreal, Canada). All the data was analyzed by using FlexiVent software (version 5.3; SCIREQ, Montreal, Canada).

Series [4] relates to LL29 cells. Put plainly: TGF-β1-dependent activation of lung fibroblast cells: α-SMA and Col1a1 mRNA by real-time RT-PCR. The series is classed as cell-based, human. As to the method:
Total RNA of cells was extracted by using RNeasy kit (Qiagen). 2.5 μg of total RNA was subjected to reverse transcription reaction in accordance with the protocol from Takara Bio Inc by using a first-strand cDNA synthesis kit (Takara Bio Inc). The synthesized cDNA was analyzed with a CFX96 (trademark) real time system by using SsoFast EvaGreen Supermix. For equalizing the total RNA amounts in the reactions, a glyceraldehyde-3-phosphate dehydrogenase (GAPDH) gene was used as an internal standard.
as §1
(§4) As described above, myofibroblast cells played an important role on pulmonary fibrosis in patients with IPF and bleomycin-induced pulmonary fibrosis. Thus, with attention focused on myofibroblast cells, the effects of idebenone and COQ10 were examined. […] Thus, the effects of idebenone and CoQ10 on TGF-β1-dependent activation of lung fibroblast cells (differentiation into myofibroblast cells) were compared. LL29 cells were treated with idebenone or CoQ10, and then treated with TGF-β1, and the amount of collagen in the medium was measured. […] Next, the effect of idebenone was examined by using the levels of α-SMA and mRNA of collagen as indices.
On the technique in general: Quantitative PCR measures a nucleic acid by following its amplification.

Series [5] deals with LL29 cells. Put plainly: LDH activity in the medium (cell death), LL29 cells. The following applies: 150 μM. In kind it is cell-based, human. As to the method:
as §1, §2
(§5) More minute doses than the doses used during screening test were applied to examine the cell death inducing action of idebenone and to simultaneously conduct a screening reproducibility experiment.

For series [6], the system named is A549 cells (human alveolar epithelial cells). The series is described as follows: LDH activity in the medium (cell death), A549 cells. The series is classed as cell-based. The conditions noted are these: 150 μM. Here is the method:
as §1, §2, §5

The subject of series [7] is LL29 cells. Put plainly: Number of living and dead cells by trypan blue staining, LL29 cells. In kind it is cell-based, human. Here is the method: as §1, §2
(§6) Thus, the present inventors measured the number of living cells and the number of dead cells with the aid of trypan blue staining.

Series [8] relates to A549 cells. The series is described as follows: Number of living and dead cells by trypan blue staining, A549 cells. The series is classed as cell-based, human. As to the method: as §1, §2, §6
The subject of series [9] is BLM pulmonary injury model mouse. The series is described as follows: BLM pulmonary injury model: α-SMA immunostaining of the lung (myofibroblast cells). The series is classed as in vivo. The following applies: FIGS. 7A and 7B. Here is the method:
as §3
A method for immunostaining with α-SMA was carried out by blocking the section with 2.5% goat serum for 10 minutes, and then performing a primary antibody treatment (against α-SMA, 1:100 dilution). At 12 hours later, the section was incubated with Alexa Fluor 594 goat anti-rabbit immunoglobulin G and DAPI for 2 hours. Thereafter, the section was encapsulated by using VECTA SHIELD. The section was photographed by using a microscope (Olympus DP71).
An α-SMA-positive region was quantitatively determined by using Image J software (National Institutes of Health, Bethesda, MD) The number of 8-OHdG-positive cells was quantitatively determined by using Definiens Tissue Studio (trademark) software (CTC Life Science Corporation, Tokyo, Japan).

The subject of series [10] is LL29 cells. The series is described as follows: TGF-β1-dependent activation of lung fibroblast cells: amount of collagen in the medium. The series is classed as cell-based, human. The conditions noted are these: LL29 cells treated with drug, then TGF-β1. Here is the method:
as §1, §4

[11] abbreviates: airway administration, day 10 to day 19 (FIG. 10D).
The mark [12] stands for this setting: oral, once a day day 10 to day 18, pirfenidone 200 mg/kg, nintedanib 30 mg/kg, tolperisone 5 mg/kg.
Setting [13] is: oral, 15 or 50 mg/kg once a day day 10 to day 18.
Where [14] appears, read: airway administration, comparison idebenone / CoQ10 (FIGS. 5A to 5C).
The mark [15] stands for this setting: airway administration, pre-administration (FIG. 3D).

Take `Cc1ccc(C(=O)C(C)CN2CCCCC2)cc1` (stereo not shown) [tolperisone]: the “fibroblast cell-selective decrease in cell viability / cell death (LL29 versus A549)” value in series [1] was “decreased the cell viability of LL29 cells (lung fibroblast cells) at a concentration lower than a concentration at which the cell viability of A549 cells (alveolar epithelial cells) decreased”. Also, the “difference in IC50 (concentration required to decrease the cell viability by 50%) between LL29 and A549 cells” value in [1] is “particularly marked difference in IC50 value”. The “BLM-dependent increase in amount of hydroxyproline” value (“BLM-dependent increase in amount” below) in [2] (airway administration, day 10 to day 19 (FIG. 10C)) is reported as “hardly suppressed such an increase”; in series [2] (intraperitoneal administration), “markedly suppressed such an increase”; in series [2] (oral administration (FIG. 11C)) it was “markedly suppressed such an increase”. Moreover, the “BLM-dependent pulmonary injuries and collagen accumulation” value in series [2] (airway administration, day 10 to day 19 (FIGS. 10A and 10B)) is “slightly suppressed such injuries and collagen accumulation”; in [2] (intraperitoneal administration), “suppressed such injuries and collagen accumulation”; in series [2] (oral administration (FIGS. 11A and 11B)) it was “suppressed such injuries and collagen accumulation”. Besides, the BLM-dependent pulmonary injuries entry in series [2] (oral, once a day day 10 to day 18, BLM 1 mg/kg, pirfenidone 200 mg/kg, nintedanib 30 mg/kg, tolperisone 5 mg/kg, day 20) is “markedly improved BLM pulmonary injuries”. The “BLM-dependent decrease in FVC” value in series [3] (setting [11]) is “suppressed such a decrease”; in series [3] (intraperitoneal administration), “suppressed such a decrease”; in [3] (oral administration (FIG. 11D)) it was “suppressed such a decrease”; in series [3] (setting [12]), “improved such changes”. Besides, the “BLM-dependent increase in total respiratory system elastance and tissue elastance” value in series [3] (setting [11]) is given as “tended to suppress such an increase”; in series [3] (intraperitoneal administration), “suppressed such an increase”; in [3] (oral administration (FIG. 11D)) it was “suppressed such an increase”; in series [3] (setting [12]), “improved such changes”. Further, the “TGF-β1-induced expression of α-SMA and Col1a1 mRNA” value (“TGF-β1-induced expression” below) in [4] is listed as “suppressed such induction”.

For `CCc1ccc(C(=O)C(C)CN2CCCCC2)cc1` (stereo not shown) [eperisone], in series [1], the “fibroblast cell-selective decrease in cell viability / cell death (LL29 versus A549)” value was “decreased the cell viability of LL29 cells at a concentration lower than a concentration at which the cell viability of A549 cells decreased”. Besides, the “BLM-dependent increase in amount” value in series [2] (intraperitoneal administration) is “tendency of suppression”. The “BLM-dependent pulmonary injuries and collagen accumulation” value was “suppressed” in [2] (intraperitoneal administration); “suppressed BLM-dependent pulmonary injuries and collagen accumulation in a concentration-dependent manner” in series [2] (oral, 15 or 50 mg/kg once a day day 10 to day 18, BLM 1 mg/kg, day 20). Also, the “BLM-dependent decrease in FVC” value was “suppressed” in series [3] (intraperitoneal administration) and “improved such changes in a concentration-dependent manner” in [3] (setting [13]). Moreover, the figures for the “BLM-dependent increase in total respiratory system elastance and tissue elastance” value in series [3] (intraperitoneal administration) and in series [3] (setting [13]) were “suppressed” and “improved such changes in a concentration-dependent manner”, respectively. Moreover, the “TGF-β1-induced expression” value in [4] is listed as “suppressed such induction”.

On to `COC1=C(OC)C(=O)C(CCCCCCCCCCO)=C(C)C1=O` [idebenone], for which, in series [1], the “fibroblast cell-selective decrease in cell viability / cell death (LL29 versus A549)” value is recorded as “decreased the cell viability of LL29 cells (lung fibroblast cells) at a concentration lower than a concentration at which the cell viability of A549 cells (alveolar epithelial cells) decreased”; the “difference in IC50 (concentration required to decrease the cell viability by 50%) between LL29 and A549 cells” value is reported as “particularly marked difference in value of IC50”. For the same compound, in series [5], the “LDH released into the medium” value is “LDH was released into the medium”. For the same compound, in series [6], the “LDH released into the medium” value is on record as “little LDH was released”. In addition, in [7], the “concentration at which induction of cell death started” value came out at 175 µM and the “concentration at which suppression of proliferation started” value came out at 75 µM. In addition, the “concentration at which suppression of cell proliferation started” value in series [8] worked out at 175 µM. Also, the “induction of cell death” value in series [8] (examined concentrations) is “did not induce cell death at examined concentrations”. Also, the “effect of drug alone on pulmonary fibrosing and the respiratory function” value in series [2] (airway administration, 18.8 mg/kg, alone (without BLM)) is “did not affect pulmonary fibrosing and the respiratory function”. Further, the “pulmonary injury and fibrosing by bleomycin” value in series [2] (setting [14]) was “suppressed”. Further, the “BLM-dependent increase in Ashcroft score” value in series [2] (airway administration, pre-administration (FIG. 3B)) is “markedly suppressed such an increase”. In addition, the “BLM-dependent increase in amount” value in series [2] (airway administration, pre-administration (FIG. 3C)) is reported as “markedly suppressed such an increase”. Moreover, the “BLM-dependent pulmonary injuries and collagen accumulation” value in [2] (airway administration, pre-administration day 1 to day 7 (FIG. 3A)) was “markedly suppressed such injuries and collagen accumulation”. Further, the “pulmonary injury and fibrosing by bleomycin” value in series [2] (therapeutic effects, comparison idebenone / CoQ10 (FIGS. 6A to 6C)) was “suppressed”. Further, in series [2] (therapeutic: airway administration started 10 days after BLM (FIGS. 4A to 4C)), the “pulmonary injury and fibrosing 20 days after administration of BLM” value was “markedly suppressed pulmonary injury and fibrosing”. Further, in series [3] (setting [15]), the “BLM-dependent decrease in FVC” value was “tended to suppress such a decrease”; the “BLM-dependent increase in total respiratory system elastance and tissue elastance” value was “suppressed such an increase”. In series [3] (therapeutic: airway administration started 10 days after BLM (FIG. 4D)), the “BLM-dependent decrease in respiratory function” value was “markedly suppressed a BLM-dependent decrease in respiratory function”. For the same compound, the “bleomycin-induced increase in number of α-SMA-positive cells (myofibroblast cells) of the lung” value in series [9] is on record as “markedly suppressed such an increase”. Moreover, the “TGF-β1-induced increase in amount of collagen in the medium” value in series [10] is recorded as “suppressed such an increase”. In series [4], the “TGF-β1-induced expression” value is recorded as “suppressed such induction”.

In the case of `COC1=C(OC)C(=O)C(C/C=C(\C)CC/C=C(\C)CC/C=C(\C)CC/C=C(\C)CC/C=C(\C)CC/C=C(\C)CC/C=C(\C)CC/C=C(\C)CC/C=C(\C)CCC=C(C)C)=C(C)C1=O` [CoQ10], the “pulmonary injury and fibrosing by bleomycin” value in series [2] (setting [14]) is recorded as “suppressed”. Besides, the “bleomycin-induced increase in number of α-SMA-positive cells (myofibroblast cells) of the lung” value in [9] is “did not exhibit such a suppressing effect”. Besides, in [10], the “TGF-β1-induced increase in amount of collagen in the medium” value is “did not suppress such an increase”. Moreover, the “TGF-β1-induced expression” value in series [4] is listed as “did not suppress such induction”.
